Earlier results on 2 compounds are cited in patent US20200038413A1, “METHODS OF TREATING PARKINSON'S DISEASE USING AMINOSTEROL COMPOSITIONS” (Enterin, Inc., priority 2018, published 2020).

Counter-ions that a name gives are not always drawn.

The conditions of series [1]: single and repeat intravenous administration, alone or in combination; cited from earlier work.
Series [2] has as its system PD population. The settings on record: short term placebo controlled trial, PD constipation; cited from earlier work.

For `CC(C)[C@@H](CC[C@@H](C)[C@H]1CC[C@H]2[C@@H]3[C@H](O)C[C@H]4C[C@@H](NCCCNCCCCN)CC[C@]4(C)[C@H]3CC[C@]12C)OS(=O)(=O)O` [Squalamine dilactate salt], the well tolerated dose entry in series [1] is on record as “at least 300 mg/m^2”.

For `CCCCC(F)(F)[C@@]1(O)CC[C@H]2[C@@H](CC(=O)[C@@H]2CCCCCCC(=O)O)O1` [Lubiprostone], the “proportion of those treated in whom effective” value in series [2] is given as “about 50%”.
